Measured values from US20260124214A1, “HETEROCYCLIC COMPOUNDS FOR USE IN THE TREATMENT OF CANCER” (ARTIOS PHARMA LIMITED, priority 2021, published 2026).
pKi: −log10 of the molar value. Structures can show the parent of a compound that is named as a salt.

Biological target: T1, Human Polθ polymerase domain (aa1820-2590) (Homo sapiens, UniProt O75417)
T1 construct: Human Polθ polymerase domain (aa1820-2590) was expressed in E. Coli; made in house; host or cells: E. coli
T1 sequence (O75417 1820-2590): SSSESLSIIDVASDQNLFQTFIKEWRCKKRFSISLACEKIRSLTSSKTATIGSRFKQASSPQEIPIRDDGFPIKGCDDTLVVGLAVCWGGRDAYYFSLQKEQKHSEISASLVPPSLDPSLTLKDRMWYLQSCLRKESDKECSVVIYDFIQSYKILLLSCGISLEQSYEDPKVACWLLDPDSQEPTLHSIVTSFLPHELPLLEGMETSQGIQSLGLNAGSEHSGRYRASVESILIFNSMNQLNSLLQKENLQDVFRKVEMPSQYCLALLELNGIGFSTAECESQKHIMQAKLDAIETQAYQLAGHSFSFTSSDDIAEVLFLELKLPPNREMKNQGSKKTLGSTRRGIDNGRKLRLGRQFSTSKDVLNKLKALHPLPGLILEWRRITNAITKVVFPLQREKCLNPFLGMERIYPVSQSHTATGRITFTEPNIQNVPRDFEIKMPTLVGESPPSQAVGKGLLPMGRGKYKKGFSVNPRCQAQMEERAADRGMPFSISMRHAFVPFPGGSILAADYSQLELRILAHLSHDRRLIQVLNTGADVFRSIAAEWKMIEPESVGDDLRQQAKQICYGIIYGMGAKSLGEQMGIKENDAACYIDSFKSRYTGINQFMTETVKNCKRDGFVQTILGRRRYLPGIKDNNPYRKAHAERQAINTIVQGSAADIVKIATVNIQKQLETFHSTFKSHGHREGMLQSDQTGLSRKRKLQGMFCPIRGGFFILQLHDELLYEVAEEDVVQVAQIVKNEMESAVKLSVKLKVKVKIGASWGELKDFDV
Assay: Polθ Polymerase Domain WT KI Assay (PicoGreen)
Format: biochemical
Conditions: 100 nM DNA substrate, 0.156 nM Polθ, initial rates vs inhibitor concentration
How it was run: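 E. coli-expressed human Polθ polymerase domain (aa1820-2590) on annealed DNA II Short/Long primer-template (1.2:1), in 25 mM Tris pH 7.5, NaCl, 5% glycerol, 0.01% Triton X-100, 0.1 mg/ml BSA, 1 mM DTT, 1% DMSO. EDTA-quenched timepoints to 180 min, PicoGreen fluorescence. Initial rates vs inhibitor concentration fitted four-parameter for KI.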

Row | SMILES | pKi
1 | C=CCN1C[C@H]2CC(=O)N(c3cc(C(F)(F)F)cc(C)n3)[C@@H]2C(=O)N(C)c2c(F)c(F)cc(Cl)c21 [Example 6, (3aR,11aS)-5-Allyl-6-chloro-8,9-difluoro-10-methyl-1-(6-methyl-4-(trifluoromethyl)pyridin-2-yl)-1,3a,4,5,10,11a-hexahydro-2H-benzo[b]pyrrolo[2,3-f][1,4]diazocine-2,11(3H)-dione] | 8.29
2 | CCN1C(=O)[C@@H]2[C@H](CC(=O)N2c2cc(C(F)(F)F)cc(C)n2)CN(CCN2CCN(C)CC2)c2c(Cl)cccc21 [Example 146, (3aR,11aS)-6-Chloro-10-ethyl-1-(6-methyl-4-(trifluoromethyl)pyridin-2-yl)-5-(2-(4-methylpiperazin-1-yl)ethyl)-1,3a,4,5,10,11a-hexahydro-2H-benzo[b]pyrrolo[2,3-f][1,4]diazocine-2,11(3H)-dione] | 8.15
3 | Cc1cc(C(F)(F)F)cc(N2C(=O)C[C@@H]3CN(CCN4CC[C@@H](C(=O)N(C)C)C4)c4c(Cl)cccc4N(C)C(=O)[C@H]32)n1 [Example 42, (R)-1-(2-((3aR,11aS)-6-Chloro-10-methyl-1-(6-methyl-4-(trifluoromethyl)pyridin-2-yl)-2,11-dioxo-1,2,3,3a,4,10,11,11a-octahydro-5H-benzo[b]pyrrolo[2,3-f][1,4]diazocin-5-yl)ethyl)-N,N-dimethylpyrrolidine-3-carboxamide] | 8.30
4 | Cc1cc(C(F)(F)F)cc(N2C(=O)C[C@@H]3CN(C[C@@H]4CCCN4)c4c(Cl)cccc4N(C)C(=O)[C@H]32)n1 (racemic) [Example 107b, (3aR,11aS)-6-Chloro-10-methyl-1-(6-methyl-4-(trifluoromethyl)pyridin-2-yl)-5-(((S/R)-pyrrolidin-2-yl)methyl)-1,3a,4,5,10,11a-hexahydro-2H-benzo[b]pyrrolo[2,3-f][1,4]diazocine-2,11(3H)-dione] | 8.28
5 | Cc1cc(C(F)(F)F)cc(N2C(=O)C[C@@H]3CN(CCN4CCN(C)CC4)c4c(Cl)cccc4N(C)C(=O)[C@H]32)n1 [Example 7, (3aR,11aS)-6-Chloro-10-methyl-1-(6-methyl-4-(trifluoromethyl)pyridin-2-yl)-5-(2-(4-methylpiperazin-1-yl)ethyl)-1,3a,4,5,10,11a-hexahydro-2H-benzo[b]pyrrolo[2,3-f][1,4]diazocine-2,11(3H)-dione] | 8.70
6 | Cc1cc(C(F)(F)F)cc(N2C(=O)C[C@@H]3CN(CC4CCCCN4)c4c(Cl)cccc4N(C)C(=O)[C@H]32)n1 (single isomer, unassigned) [Example 105a] | 8.07
7 | Cc1cc(C(F)(F)F)cc(N2C(=O)C[C@@H]3CN(c4ccccn4)c4c(Cl)cccc4N(C)C(=O)[C@H]32)n1 [Example 145, (3aR,11aS)-6-Chloro-10-methyl-1-(6-methyl-4-(trifluoromethyl)pyridin-2-yl)-5-(pyridin-2-yl)-1,3a,4,5,10,11a-hexahydro-2H-benzo[b]pyrrolo[2,3-f][1,4]diazocine-2,11(3H)-dione] | 7.52
8 | Cc1cc(C(F)(F)F)cc(N2C(=O)C[C@@H]3CN(Cc4ccc([C@@H]5CCCN5C)cc4)c4c(F)cccc4N(C)C(=O)[C@H]32)n1 (racemic) [Example 125b, (3aR,11aS)-6-Fluoro-10-methyl-1-(6-methyl-4-(trifluoromethyl)pyridin-2-yl)-5-(4-((S/R)-1-methylpyrrolidin-2-yl)benzyl)-1,3a,4,5,10,11a-hexahydro-2H-benzo[b]pyrrolo[2,3-f][1,4]diazocine-2,11(3H)-dione] | 8.61
9 | Cc1cc(C(F)(F)F)cc(N2C(=O)C[C@@H]3CN(c4ccccc4)c4c(F)cccc4N(C)C(=O)[C@H]32)n1 [Example 139, (3aR,11aS)-6-Fluoro-10-methyl-1-(6-methyl-4-(trifluoromethyl)pyridin-2-yl)-5-phenyl-1,3a,4,5,10,11a-hexahydro-2H-benzo[b]pyrrolo[2,3-f][1,4]diazocine-2,11(3H)-dione] | 7.25
10 | Cc1cc(C(F)(F)F)cc(N2C(=O)C[C@@H]3CN(CC4CCCN4C)c4c(Cl)cccc4N(C)C(=O)[C@H]32)n1 (single isomer, unassigned) [Example 118a] | 8.07
11 | COc1ccnc(N2C[C@H]3CC(=O)N(c4cc(C(F)(F)F)cc(C)n4)[C@@H]3C(=O)N(C)c3cccc(F)c32)c1 [Example 140, (3aR,11aS)-6-Fluoro-5-(4-methoxypyridin-2-yl)-10-methyl-1-(6-methyl-4-(trifluoromethyl)pyridin-2-yl)-1,3a,4,5,10,11a-hexahydro-2H-benzo[b]pyrrolo[2,3-f][1,4]diazocine-2,11(3H)-dione] | 7.10
12 | Cc1cc(C(F)(F)F)cc(N2C(=O)C[C@@H]3CN(CCN4CC[C@@H](C#N)C4)c4c(Cl)cccc4N(C)C(=O)[C@H]32)n1 [Example 40, (R)-1-(2-((3aR,11aS)-6-Chloro-10-methyl-1-(6-methyl-4-(trifluoromethyl)pyridin-2-yl)-2,11-dioxo-1,2,3,3a,4,10,11,11a-octahydro-5H-benzo[b]pyrrolo[2,3-f][1,4]diazocin-5-yl)ethyl)pyrrolidine-3-carbonitrile] | 8.53
13 | Cc1cc(C(F)(F)F)cc(N2C(=O)C[C@@H]3CN(c4ccc5ccn(C)c5n4)c4c(F)cccc4N(C)C(=O)[C@H]32)n1 [Example 143, (3aR,11aS)-6-Fluoro-10-methyl-5-(1-methyl-1H-pyrrolo[2,3-b]pyridin-6-yl)-1-(6-methyl-4-(trifluoromethyl)pyridin-2-yl)-1,3a,4,5,10,11a-hexahydro-2H-benzo[b]pyrrolo[2,3-f][1,4]diazocine-2,11(3H)-dione] | 7.01

Stronger by pKi, values ahead:

Row | pKi | SMILES
14 | 9.34 | Cc1cc(C(F)(F)F)cc(N2C(=O)C[C@@H]3CN(Cc4cc5n(n4)CCN(C)C5)c4c(Cl)cccc4N(C)C(=O)[C@H]32)n1 [Example 76, (3aR,11aS)-6-Chloro-10-methyl-5-((5-methyl-4,5,6,7-tetrahydropyrazolo[1,5-a]pyrazin-2-yl)methyl)-1-(6-methyl-4-(trifluoromethyl)pyridin-2-yl)-1,3a,4,5,10,11a-hexahydro-2H-benzo[b]pyrrolo[2,3-f][1,4]diazocine-2,11(3H)-dione]
15 | 8.74 | Cc1cc(C(F)(F)F)cc(N2C(=O)C[C@@H]3CN(CCN4CCOCC4)c4c(Cl)cccc4N(C)C(=O)[C@H]32)n1 [Example 20, (3aR,11aS)-6-Chloro-10-methyl-1-(6-methyl-4-(trifluoromethyl)pyridin-2-yl)-5-(2-morpholinoethyl)-1,3a,4,5,10,11a-hexahydro-2H-benzo[b]pyrrolo[2,3-f][1,4]diazocine-2,11(3H)-dione]
16 | 8.79 | Cc1cc(C(F)(F)F)cc(N2C(=O)C[C@@H]3CN(Cc4ccncc4)c4c(C)cccc4N(C)C(=O)[C@H]32)n1 [Example 114, (3aR,11aS)-6,10-Dimethyl-1-(6-methyl-4-(trifluoromethyl)pyridin-2-yl)-5-(pyridin-4-ylmethyl)-1,3a,4,5,10,11a-hexahydro-2H-benzo[b]pyrrolo[2,3-f][1,4]diazocine-2,11(3H)-dione]
17 | 9.20 | Cc1cc(C(F)(F)F)cc(N2C(=O)C[C@@H]3CN(CCN4CC5CCC(C4)N5C)c4c(C)cccc4N(C)C(=O)[C@H]32)n1 [Example 60, (3aR,11aS)-6,10-Dimethyl-5-(2-(8-methyl-3,8-diazabicyclo[3.2.1]octan-3-yl)ethyl)-1-(6-methyl-4-(trifluoromethyl)pyridin-2-yl)-1,3a,4,5,10,11a-hexahydro-2H-benzo[b]pyrrolo[2,3-f][1,4]diazocine-2,11(3H)-dione dihydrochloride]
18 | 8.92 | Cc1cc(C(F)(F)F)cc(N2C(=O)C[C@@H]3CN(CCN4CCC(C#N)CC4)c4c(Cl)cccc4N(C)C(=O)[C@H]32)n1 [Example 38, 1-(2-((3aR,11aS)-6-Chloro-10-methyl-1-(6-methyl-4-(trifluoromethyl)pyridin-2-yl)-2,11-dioxo-1,2,3,3a,4,10,11,11a-octahydro-5H-benzo[b]pyrrolo[2,3-f][1,4]diazocin-5-yl)ethyl)piperidine-4-carbonitrile]
19 | 9.12 | Cc1cc(C(F)(F)F)cc(N2C(=O)C[C@@H]3CN(CCN4C[C@H]5C[C@@H]4CN5C)c4c(C)cccc4N(C)C(=O)[C@H]32)n1 [Example 61, (3aR,11aS)-6,10-Dimethyl-5-(2-((1R,4R)-5-methyl-2,5-diazabicyclo[2.2.1]heptan-2-yl)ethyl)-1-(6-methyl-4-(trifluoromethyl)pyridin-2-yl)-1,3a,4,5,10,11a-hexahydro-2H-benzo[b]pyrrolo[2,3-f][1,4]diazocine-2,11(3H)-dione dihydrochloride]
